Molecules are shown by their SMILES.

The target of the first assay is T1, gamma-secretase (partially purified extract of IMR-32 cell membranes; substrate MBP-C125 Swe fusion protein, cleavage at the Aβ40 site) (Homo sapiens, UniProt P49768).
T1 construct: a partially purified extract of IMR-32 cell membranes as the gamma-secretase enzyme preparation; endogenous in cells; host or cells: IMR-32 cell membranes, partially purified extract
Description: Gamma-secretase APP enzyme assay (Example A). As to conditions: class symbols; assay described in Example A; read-out: γAPP IC50. The assay is classed as biochemical. The source says:
The gamma-secretase APP enzyme assay was designed to measure the specific proteolytic cleavage of an APP substrate (MBP-C125 Swe fusion protein) at the Aβ40 site. […] This assay involved two steps beginning with the enzymatic reaction generating a cleavage product that was captured with an immobilized antibody specific for the neo-epitope Aβ40 site. The captured cleavage product was then detected in a sandwich ELISA assay with a biotinylated reporter antibody that is specific to Aβ(17-28). Streptavidin-linked alkaline phosphatase was then added that would generate a fluorescent signal proportional to the amount of cleavage product.
This warmed solution of BigCHAPS (N,N-Bis(3-D-gluconamidopropyl)cholamide) detergent was used to dissolve Brain Extract Type-V (lipid containing a minimum of 40% phosphatidylethanolamine) from Sigma (St. Louis, Mo.) to a concentration of 8 mg/ml. This solution containing BigCHAPS and lipid at 8 mg/ml is then diluted to 0.53 mg/ml lipid with a pre-warmed solution of Hepes and sodium chloride.
Gamma-secretase was then added to a 96-well micro-titre plate and then incubated with various concentrations of inhibitor for 30 minutes at 37° C. MBPC125 substrate was then added to initiate the reaction that would run for two hours at 37° C. The reaction was quenched with the addition of SDS to a final concentration of 0.1% and then 100 μl of the reaction mixture was transferred to a capture ELISA plate and incubated overnight at 4° C. Detection of the cleavage product was performed using a standard sandwich ELISA assay and quantified using a six point standard curve.
For `O=S(=O)(c1ccc(C(F)(F)F)cc1)N1C2c3c[nH]nc3C(F)(F)C1c1cccc(F)c12` (centres unmarked) [compound 127], the IC50 was less than 100 nM.
Still for that read-out and setting: as for `O=S(=O)(c1ccc(C(F)(F)F)cc1)N1C2c3c[nH]nc3C(F)(F)C1c1cccc(F)c12` (centres unmarked) [compound 128], the figure is less than 100 nM; as for `O=S(=O)(c1ccc(C(F)(F)F)nc1)N1C2Cc3n[nH]cc3C1c1c(F)ccc(F)c12` (centres unmarked) [compound 131], less than 100 nM.
Take `O=S(=O)(c1ccc(C(F)(F)F)cc1)N1C2Cc3[nH]ncc3C1CC(c1cccc(-n3ccnc3)c1)C2` (centres unmarked) [compound 132]: the IC50 is less than 100 nM.
Turning to `O=S(=O)(c1ccc(C(F)(F)F)cc1)N1C2Cc3[nH]ncc3C1CC(c1cccc(-n3cccn3)c1)C2` (centres unmarked) [compound 133], the IC50 was less than 100 nM.
Turning to `O=S(=O)(c1ccc(C(F)(F)F)nc1)N1C2Cc3n[nH]cc3C1c1cccc(C3CC3)c1C2` (centres unmarked) [compound 134], the IC50 was less than 100 nM.
Same read-out and setting: as for `O=S(=O)(c1ccc(C(F)(F)F)nc1)N1C2Cc3c(C4CC4)cccc3C1Cc1n[nH]cc12` (centres unmarked) [compound 135], the figure is less than 100 nM; as for `Cn1ncc(C2CC3Cc4[nH]ncc4C(C2)N3S(=O)(=O)c2ccc(Cl)cc2)n1` (centres unmarked) [compound 140], 100 to 499 nM; as for `O=C1CCCN1c1ccc(C2CC3Cc4n[nH]cc4C(C2)N3S(=O)(=O)c2ccc(C(F)(F)F)cc2)cc1` (centres unmarked) [compound 141], less than 100 nM.
On the same count and under the same terms, as for `COC(=O)CCCNc1ccc(C2CC3Cc4n[nH]cc4C(C2)N3S(=O)(=O)c2ccc(C(F)(F)F)cc2)cc1` (centres unmarked) [compound 142], the figure is less than 100 nM; as for `O=C1c2n[nH]cc2C2c3cc(F)c(F)cc3C1N2S(=O)(=O)c1ccc(C(F)(F)F)nc1` (centres unmarked) [compound 148], less than 100 nM; as for `O=S(=O)(c1ccc(C(F)(F)F)nc1)N1C2Cc3n[nH]cc3C1c1c(F)ccc(F)c12` (centres unmarked) [compound 149], 100 to 499 nM.
Turning to `O=S(=O)(c1ccc(C(F)(F)F)nc1)N1C2Cc3n[nH]cc3C1c1c(F)ccc(F)c12` (centres unmarked) [compound 150], the IC50 was less than 100 nM.
Turning to `Cc1cc(F)cc2c1C1c3c[nH]nc3CC2N1S(=O)(=O)c1ccc(C(F)(F)F)nc1` (centres unmarked) [compound 159], the IC50 is less than 100 nM.
As for `O=S(=O)(c1ccc(C(F)(F)F)cc1)N1C2Cc3[nH]ncc3C1c1ccc3ccccc3c12` (centres unmarked) [compound 160], the IC50 was less than 100 nM.
The same measure, in the same setting: as for `O=C1c2[nH]ncc2C2c3c(F)cccc3C1N2S(=O)(=O)c1ccc(C(F)(F)F)nc1` (centres unmarked) [compound 161], the figure is less than 100 nM; as for `O=S(=O)(c1ccc(C(F)(F)F)nc1)N1C2c3cn[nH]c3C(F)(F)C1c1cccc(F)c12` (centres unmarked) [compound 166], less than 100 nM.
Still for that read-out and setting: next, `N#Cc1ccc2c(c1)C1Cc3n[nH]cc3C2N1S(=O)(=O)c1ccc(C(F)(F)F)nc1` (centres unmarked) [compound 167]: less than 100 nM; `O=S(=O)(c1ccc(C(F)(F)F)cc1)N1C2Cc3[nH]ncc3C1c1ccc3ccccc3c12` (centres unmarked) [compound 168]: less than 100 nM.
The same measure, in the same setting: as for `O=S(=O)(c1ccc(C(F)(F)F)cc1)N1C2Cc3[nH]ncc3C1c1ccc3ccccc3c12` (centres unmarked) [compound 169], the figure is 100 to 499 nM.
Turning to `O=S(=O)(c1ccc(C(F)(F)F)cc1)N1C2Cc3[nH]ncc3C1c1c2ccc2ccccc12` (centres unmarked) [compound 170], the IC50 is less than 100 nM.
The same measure, in the same setting: next, `O=S(=O)(c1ccc(C(F)(F)F)cc1)N1C2Cc3[nH]ncc3C1c1c2ccc2ccccc12` (centres unmarked) [compound 171]: 100 to 499 nM; `O=C1c2[nH]ncc2C2c3ccccc3C1N2S(=O)(=O)c1ccc(C(F)(F)F)cc1` (centres unmarked) [compound 173]: less than 100 nM.
Take `O=S(=O)(c1ccc(C(F)(F)F)cc1)N1C2=Cc3c(-c4cccc(C(F)(F)F)c4)cccc3C1Cc1n[nH]cc12` (centres unmarked) [compound 177]: the IC50 is less than 100 nM.
Still for that read-out and setting: next, `O=S(=O)(c1ccc(C(F)(F)F)nc1)N1C2Cc3n[nH]cc3C1c1cccc(F)c12` (centres unmarked) [compound 183]: less than 100 nM.
Regarding `O=S(=O)(c1ccc(C(F)(F)F)cc1)N1C2Cc3cccc(F)c3C1Cc1n[nH]cc12` (centres unmarked) [compound 190], the IC50 is less than 100 nM.
As for `O=S(=O)(c1ccc(C(F)(F)F)cc1)N1C2Cc3cccc(F)c3C1Cc1n[nH]cc12` (centres unmarked) [compound 191], the IC50 was less than 100 nM.
On to `O=S(=O)(c1ccc(C(F)(F)F)nc1)N1C2Cc3[nH]ncc3C1c1ccccc12` (centres unmarked) [compound 197], for which the IC50 was less than 100 nM.
Still for that read-out and setting: as for `O=C1c2n[nH]cc2C2c3ccccc3C1N2S(=O)(=O)c1ccc(C(F)(F)F)nc1` (centres unmarked) [compound 200], the figure is less than 100 nM; as for `Cc1noc(-c2ccc3c(c2)C2c4cn[nH]c4CC3N2S(=O)(=O)c2ccc(C(F)(F)F)nc2)n1` (centres unmarked) [compound 201], more than 1000 nM; as for `Cc1noc(-c2ccc3c(c2)C2c4cn[nH]c4CC3N2S(=O)(=O)c2ccc(C(F)(F)F)nc2)n1` (centres unmarked) [compound 202], more than 1000 nM.
Still for that read-out and setting: as for `COC(=O)c1ccc2c(c1)C1c3cn[nH]c3CC2N1S(=O)(=O)c1ccc(C(F)(F)F)nc1` (centres unmarked) [compound 203], the figure is more than 1000 nM.
For `COC(=O)c1ccc2c(c1)C1c3cn[nH]c3CC2N1S(=O)(=O)c1ccc(C(F)(F)F)nc1` (centres unmarked) [compound 205], the IC50 was 100 to 499 nM.
On to `O=S(=O)(c1ccc(C(F)(F)F)nc1)N1C2c3ccccc3C1[C@@H](F)c1n[nH]cc12` (some centres unmarked) [compound 206], for which the IC50 is less than 100 nM.
Regarding `O=S(=O)(c1ccc(C(F)(F)F)nc1)N1C2c3c[nH]nc3[C@H](F)C1c1cccc(F)c12` (some centres unmarked) [compound 207], the IC50 is less than 100 nM.
On to `O=S(=O)(c1ccc(C(F)(F)F)nc1)N1C2Cc3cccc(Br)c3[C@@H]1Cc1n[nH]cc12` [compound 212], for which the IC50 was less than 100 nM.
Take `O=S(=O)(c1ccc(C(F)(F)F)nc1)N1C2Cc3cccc(Br)c3C1Cc1[nH]ncc12` (centres unmarked) [compound 213]: the IC50 lay within 100 to 499 nM.
Turning to `O=S(=O)(c1ccc(C(F)(F)F)nc1)N1C2c3cn[nH]c3C(F)(F)C1c1c(F)cccc12` (centres unmarked) [compound 215], the IC50 was less than 100 nM.
On the same count and under the same terms, as for `O=S(=O)(c1ccc(C(F)(F)F)nc1)N1C2c3c[nH]nc3[C@@H](O)C1c1c(F)cccc12` (some centres unmarked) [compound 216], the figure is 100 to 499 nM; as for `O=S(=O)(c1ccc(C(F)(F)F)nc1)N1C2Cc3cccc(Br)c3C1c1cn[nH]c1C2` (centres unmarked) [compound 218], less than 100 nM.
In the case of `O=S(=O)(c1ccc(C(F)(F)F)nc1)N1C2Cc3[nH]ncc3C1c1cc(Cl)ccc12` (centres unmarked) [compound 221], the IC50 is 100 to 499 nM.
Consider `O=S(=O)(c1ccc(C(F)(F)F)nc1)N1C2Cc3[nH]ncc3C1c1cc(Cl)ccc12` (centres unmarked) [compound 222], for which the IC50 is less than 100 nM.
Still for that read-out and setting: as for `COC(=O)c1cccc2c1C1Cc3[nH]ncc3C2N1S(=O)(=O)c1ccc(C(F)(F)F)nc1` (centres unmarked) [compound 226], the figure is less than 100 nM; as for `COC(=O)c1cccc2c1C1Cc3[nH]ncc3C2N1S(=O)(=O)c1ccc(C(F)(F)F)nc1` (centres unmarked) [compound 227], 100 to 499 nM; as for `O=S(=O)(c1ccc(C(F)(F)F)nc1)N1C2Cc3[nH]ncc3C1c1cccc(Cl)c12` (centres unmarked) [compound 228], less than 100 nM.
Still for that read-out and setting: next, `O=S(=O)(c1ccc(C(F)(F)F)nc1)N1C2Cc3[nH]ncc3C1c1cccc(Cl)c12` (centres unmarked) [compound 229]: 100 to 499 nM; `Cc1noc(-c2cccc3c2C2Cc4[nH]ncc4C3N2S(=O)(=O)c2ccc(C(F)(F)F)nc2)n1` (centres unmarked) [compound 234]: less than 100 nM.
Still for that read-out and setting: as for `Cc1noc(-c2cccc3c2C2Cc4[nH]ncc4C3N2S(=O)(=O)c2ccc(C(F)(F)F)nc2)n1` (centres unmarked) [compound 235], the figure is 100 to 499 nM; as for `O=C1c2[nH]ncc2C2c3c(F)cccc3C1N2S(=O)(=O)c1ccc(Cl)cc1` (centres unmarked) [compound 236], less than 100 nM.
Regarding `O=S(=O)(c1ccc(C(F)(F)F)nc1)N1C2c3c[nH]nc3[C@H](O)C1c1cccc(F)c12` (some centres unmarked) [compound 237], the IC50 is more than 1000 nM.
Take `O=S(=O)(c1ccc(C(F)(F)F)nc1)N1C2c3cn[nH]c3[C@@H](O)C1c1cccc(F)c12` (some centres unmarked) [compound 238]: the IC50 is less than 100 nM.

Staying with this assay, now noted: numeric bounds given instead of class symbols; assay described in Example A; read-out: γAPP IC50.
On to `Cn1ncc(C2CC3Cc4[nH]ncc4C(C2)N3S(=O)(=O)c2ccc(Cl)cc2)n1` (centres unmarked) [compound 139], for which the IC50 was more than 300 nM.
For the molecule `Cc1cc(F)cc2c1C1c3c[nH]nc3CC2N1S(=O)(=O)c1ccc(C(F)(F)F)nc1` (centres unmarked) [compound 158], the IC50 was more than 10 nM.
As for `O=S(=O)(c1ccc(C(F)(F)F)nc1)N1C2Cc3[nH]ncc3C1c1ccccc12` (centres unmarked) [compound 196], the IC50 was more than 30 nM.

The assay is the same for the next values; noted with them: γAPP IC50 (nM), class symbols; assay described in Example A.
Molecule `O=S(=O)(c1ccc(C(F)(F)F)nc1)N1C2Cc3n[nH]cc3C1c1c(F)cccc12` (centres unmarked) [compound 130] returned an IC50 of less than 100 nM.
Molecule `O=S(=O)(c1ccc(C(F)(F)F)nc1)N1C2Cc3n[nH]cc3C1c1ncsc12` (centres unmarked) [compound 187] registered a concentration for half-maximal inhibition (IC50) of 100 to 499 nM.
`O=S(=O)(c1ccc(C(F)(F)F)nc1)N1C2Cc3n[nH]cc3C1c1ncsc12` (centres unmarked) [compound 188] had a concentration for half-maximal inhibition (IC50) of more than 1000 nM.
Still for that read-out and setting: as for `O=S(=O)(c1ccc(C(F)(F)F)nc1)N1C2Cc3n[nH]cc3C1c1ncsc12` (centres unmarked) [compound 189], the figure is 100 to 499 nM.

The assay is the same for the next values; noted with them: γAPP IC50 (nM), numeric bounds given instead of class symbols; assay described in Example A.
For `O=S(=O)(c1ccc(C(F)(F)F)nc1)N1C2Cc3n[nH]cc3C1c1c(F)cccc12` (centres unmarked) [compound 129], the 50% inhibitory concentration (IC50) is more than 10 nM.

In general, IC50 refers to the midpoint of a concentration-inhibition curve.

Source of the values: patent US8283358B2, “N-sulfonamido polycyclic pyrazolyl compounds” (Elan Pharmaceuticals, Inc., priority 2008, dated 2012).
